# Columns and labels:
# [1] = target: T1, PBP1a from Acinetobacter baumannii (ATCC 19606) (Acinetobacter baumannii, UniProt A0ABX6CK30); experiment: Bocillin-FL fluorescence polarization competition binding, A. baumannii PBP1a; details: fluorescence polarization competition binding assay using Bocillin-FL; read-out: A. baumannii PBP1a Potency
# T1 sequence (A0ABX6CK30 1-851): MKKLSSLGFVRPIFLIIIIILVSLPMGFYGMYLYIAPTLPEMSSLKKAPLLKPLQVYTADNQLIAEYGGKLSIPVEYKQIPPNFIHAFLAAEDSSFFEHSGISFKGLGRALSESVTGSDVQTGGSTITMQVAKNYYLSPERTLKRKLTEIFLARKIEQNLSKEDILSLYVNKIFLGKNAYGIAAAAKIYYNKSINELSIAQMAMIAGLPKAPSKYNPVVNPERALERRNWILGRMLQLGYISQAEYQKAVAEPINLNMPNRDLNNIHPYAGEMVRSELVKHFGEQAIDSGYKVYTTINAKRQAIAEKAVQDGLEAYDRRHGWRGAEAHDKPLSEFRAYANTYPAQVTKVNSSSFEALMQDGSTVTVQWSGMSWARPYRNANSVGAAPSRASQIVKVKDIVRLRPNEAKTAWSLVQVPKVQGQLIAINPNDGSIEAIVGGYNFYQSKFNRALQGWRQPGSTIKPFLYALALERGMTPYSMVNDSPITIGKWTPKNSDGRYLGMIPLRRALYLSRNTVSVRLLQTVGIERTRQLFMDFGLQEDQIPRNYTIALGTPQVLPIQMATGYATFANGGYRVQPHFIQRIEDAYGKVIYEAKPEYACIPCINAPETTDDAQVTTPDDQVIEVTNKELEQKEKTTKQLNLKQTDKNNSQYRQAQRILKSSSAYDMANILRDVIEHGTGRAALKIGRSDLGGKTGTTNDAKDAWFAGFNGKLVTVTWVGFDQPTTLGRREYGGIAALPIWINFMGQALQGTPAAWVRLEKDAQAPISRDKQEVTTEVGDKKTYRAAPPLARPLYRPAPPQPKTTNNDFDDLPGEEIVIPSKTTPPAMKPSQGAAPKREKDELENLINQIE
# In short: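 Purified PBPs pre-incubated with inhibitor (E. coli PBP3 1.5 μM, 30 min; P. aeruginosa PBP3 0.75 μM, A. baumannii PBP1a 1 μM and PBP3 0.2 μM, 15 min), then Bocillin-FL 0.1 μM (0.05 μM for PBP1a) added; FP read up to 60 min. EC50 = concentration halving bound Bocillin-FL.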
# [2] = tested on: N. gonorrhoeae ATCC 49226; experiment: Liquid broth MIC in Fastidious broth; details: Neisseria gonorrhoeae, ATCC49226, read-out: Minimum Inhibitory Concentration, ATCC 49226
# N. gonorrhoeae MS11 = experiment: Liquid broth MIC in Fastidious broth; details: Neisseria gonorrhoeae, MS11, read-out: Minimum Inhibitory Concentration, MS11
# N. gonorrhoeae WHO G = experiment: Liquid broth MIC in Fastidious broth; details: Neisseria gonorrhoeae, read-out: Minimum Inhibitory Concentration, WHO G
# N. gonorrhoeae WHO L = experiment: Liquid broth MIC in Fastidious broth; details: Neisseria gonorrhoeae, read-out: Minimum Inhibitory Concentration, WHO L
# Experimental: Liquid broth-based assays were used for antibacterial testing of PBP inhibitors in Neisseria gonorrhoeae. Briefly, cryo-preserved bacterial cultures of clinical strains were streaked for isolation on Chocolate Agar (72 g/L (2×) GC Agar Base (BD #228950) and 2% (2×) Hemoglobin was autoclaved at 121° C. for 20 minutes to sterilize. Once cooled to ˜50° C. the 2×GC Agar Base and 2× Hemoglobin solutions are combined and 1% IsoVitaleX Enrichment (BD #211876) was added to the solution). Strains were incubated at 36° C. and 5% CO2 to allow growth of colonies, 24 hours before inoculum preparation. 2-fold serial dilutions of test compounds were conducted in a 96 well plate with a final volume of 75 μL per well at 2-fold the final desired concentration in Fastidious broth (Remel #R07664). For preparation of assay inoculum, a direct suspension was prepared by aseptically swabbing 10-15 colonies from agar plates into culture tubes containing 2 mL of fresh sterile saline. After the dilution plates were set up, direct suspensions were then diluted in a cuvette containing sterile saline and the optical density was measured at 600 nm. Inocula were diluted such that 75 μL of this culture in Fastidious broth results in a starting bacterial concentration of 5×10^5 CFU/mL when added to the dilution plates. The plates were incubated for ˜24 hours at 36° C. and 5% CO2.
# N. gonorrhoeae WHO K = experiment: Liquid broth MIC in Fastidious broth; details: Neisseria gonorrhoeae, read-out: Minimum Inhibitory Concentration, WHO K
# N. gonorrhoeae WHO X = experiment: Liquid broth MIC in Fastidious broth; details: Neisseria gonorrhoeae, read-out: Minimum Inhibitory Concentration, WHO X
# N. gonorrhoeae WHO Q = experiment: Liquid broth MIC in Fastidious broth; details: Neisseria gonorrhoeae, read-out: Minimum Inhibitory Concentration, WHO Q
SMILES,IC50 [1] [µM],MIC [2] [µg/mL],MIC (N. gonorrhoeae MS11) [µg/mL],MIC (N. gonorrhoeae WHO G) [µg/mL],MIC (N. gonorrhoeae WHO L) [µg/mL],MIC (N. gonorrhoeae WHO K) [µg/mL],MIC (N. gonorrhoeae WHO X) [µg/mL],MIC (N. gonorrhoeae WHO Q) [µg/mL]
"O=C(NCCS(=O)(=O)N1CCN(C(=O)N[C@@H](C(=O)N[C@H]2Cc3ccc(F)c(C(=O)O)c3OB2O)c2cc(F)c(O)c(O)c2Cl)C1=O)c1ccc(O)cc1 [Example 287, (R)-3-((R)-2-(2-chloro-5-fluoro-3,4-dihydroxyphenyl)-2-(3-((2-(4-hydroxybenzamido)ethyl)sulfonyl)-2-oxoimidazolidine-1-carboxamido)acetamido)-7-fluoro-2-hydroxy-3,4-dihydro-2H-benzo[e][1,2]oxaborinine-8-carboxylic acid]",> 250,4 to 8,4 to 8,4 to 8,> 64,16 to 32,> 64,4 to 8
"O=C(NCCCN1CCN(C(=O)NC(C(=O)N[C@H]2Cc3ccc(F)c(C(=O)O)c3OB2O)c2cc(F)c(O)c(O)c2Cl)C(=O)C1=O)c1ccc(O)c(F)c1 (stereo partly drawn) [Example 304, (3R)-3-(2-(2-chloro-5-fluoro-3,4-dihydroxyphenyl)-2-(4-(3-(3-fluoro-4-hydroxybenzamido)propyl)-2,3-dioxopiperazine-1-carboxamido)acetamido)-7-fluoro-2-hydroxy-3,4-dihydro-2H-benzo[e][1,2]oxaborinine-8-carboxylic acid]",> 250,16 to 32,16 to 32,16 to 32,> 64,> 64,> 64,> 64
"Cc1cc(C(=O)NCCCN2CCN(C(=O)N[C@@H](C(=O)N[C@H]3Cc4ccc(F)c(C(=O)O)c4OB3O)c3cc(F)c(O)c(O)c3Cl)C(=O)C2=O)ccn1 [Example 298, (R)-3-((R)-2-(2-chloro-5-fluoro-3,4-dihydroxyphenyl)-2-(4-(3-(2-methylisonicotinamido)propyl)-2,3-dioxopiperazine-1-carboxamido)acetamido)-7-fluoro-2-hydroxy-3,4-dihydro-2H-benzo[e][1,2]oxaborinine-8-carboxylic acid]",> 250,16 to 32,16 to 32,16 to 32,> 64,> 64,> 64,> 64
"O=C(NCCCN1CCN(C(=O)N[C@H](C(=O)N[C@H]2Cc3ccc(F)c(C(=O)O)c3OB2O)c2cc(F)c(O)c(O)c2Cl)C(=O)C1=O)c1cccc(O)c1Cl [Example 302, (R)-3-((S)-2-(4-(3-(2-chloro-3-hydroxybenzamido)propyl)-2,3-dioxopiperazine-1-carboxamido)-2-(2-chloro-5-fluoro-3,4-dihydroxyphenyl)acetamido)-7-fluoro-2-hydroxy-3,4-dihydro-2H-benzo[e][1,2]oxaborinine-8-carboxylic acid]",> 250,> 64,> 64,> 64,> 64,> 64,> 64,> 64
"O=C(NCCCN1CCN(C(=O)N[C@@H](C(=O)N[C@H]2Cc3ccc(F)c(C(=O)O)c3OB2O)c2cc(F)c(O)c(O)c2Cl)C1=O)Nc1ccc(O)cc1 [Example 284, (R)-3-((R)-2-(2-chloro-5-fluoro-3,4-dihydroxyphenyl)-2-(3-(3-(3-(4-hydroxyphenyl)ureido)propyl)-2-oxoimidazolidine-1-carboxamido)acetamido)-7-fluoro-2-hydroxy-3,4-dihydro-2H-benzo[e][1,2]oxaborinine-8-carboxylic acid]",> 250,4 to 8,4 to 8,4 to 8,16 to 32,16 to 32,> 64,4 to 8
"O=C(NCCCN1CCN(C(=O)N[C@H](C(=O)N[C@H]2Cc3ccc(F)c(C(=O)O)c3OB2O)c2cc(F)c(O)c(O)c2Cl)C(=O)C1=O)c1ccnc(F)c1F [Example 299, (R)-3-((S)-2-(2-chloro-5-fluoro-3,4-dihydroxyphenyl)-2-(4-(3-(2,3-difluoroisonicotinamido)propyl)-2,3-dioxopiperazine-1-carboxamido)acetamido)-7-fluoro-2-hydroxy-3,4-dihydro-2H-benzo[e][1,2]oxaborinine-8-carboxylic acid]",> 250,> 64,> 64,> 64,> 64,> 64,> 64,> 64
"O=C(NCCCN1CCN(C(=O)NC(C(=O)N[C@H]2Cc3ccc(F)c(C(=O)O)c3OB2O)c2cc(F)c(O)c(O)c2Cl)C(=O)C1=O)c1ccc(O)cc1O (stereo partly drawn) [Example 307, (3R)-3-(2-(2-chloro-5-fluoro-3,4-dihydroxyphenyl)-2-(4-(3-(2,4-dihydroxybenzamido)propyl)-2,3-dioxopiperazine-1-carboxamido)acetamido)-7-fluoro-2-hydroxy-3,4-dihydro-2H-benzo[e][1,2]oxaborinine-8-carboxylic acid]",> 250,16 to 32,16 to 32,16 to 32,> 64,> 64,> 64,> 64
"O=C(NCCS(=O)(=O)N1CCN(C(=O)N[C@H](C(=O)N[C@H]2Cc3ccc(F)c(C(=O)O)c3OB2O)c2cc(F)c(O)c(O)c2Cl)C1=O)c1ccc(O)cc1 [Example 286, (R)-3-((S)-2-(2-chloro-5-fluoro-3,4-dihydroxyphenyl)-2-(3-((2-(4-hydroxybenzamido)ethyl)sulfonyl)-2-oxoimidazolidine-1-carboxamido)acetamido)-7-fluoro-2-hydroxy-3,4-dihydro-2H-benzo[e][1,2]oxaborinine-8-carboxylic acid]",> 250,> 64,> 64,> 64,> 64,> 64,> 64,> 64
"O=C(O)c1c(F)ccc2c1OB(O)[C@@H](NC(=O)C(NC(=O)N1CCN(Cc3ccc(O)c(O)c3Cl)C(=O)C1=O)c1cc(F)c(O)c(O)c1Cl)C2 (stereo partly drawn) [Example 292, (3R)-3-(2-(4-(2-chloro-3,4-dihydroxybenzyl)-2,3-dioxopiperazine-1-carboxamido)-2-(2-chloro-5-fluoro-3,4-dihydroxyphenyl)acetamido)-7-fluoro-2-hydroxy-3,4-dihydro-2H-benzo[e][1,2]oxaborinine-8-carboxylic acid]",> 250,> 64,> 64,> 64,> 64,> 64,> 64,> 64
"O=C(NCCCN1CCN(C(=O)NC(C(=O)N[C@H]2Cc3ccc(F)c(C(=O)O)c3OB2O)c2cc(F)c(O)c(O)c2Cl)C1=O)c1cccnc1 (stereo partly drawn) [Example 281, (3R)-3-(2-(2-chloro-5-fluoro-3,4-dihydroxyphenyl)-2-(3-(3-(nicotinamido)propyl)-2-oxoimidazolidine-1-carboxamido)acetamido)-7-fluoro-2-hydroxy-3,4-dihydro-2H-benzo[e][1,2]oxaborinine-8-carboxylic acid]",> 250,> 64,> 64,16 to 32,> 64,> 64,> 64,> 64
"O=C(NCCCS(=O)(=O)N1CCN(C(=O)NC(C(=O)N[C@H]2Cc3ccc(F)c(C(=O)O)c3OB2O)c2cc(F)c(O)c(O)c2Cl)C1=O)Nc1cccc(O)c1 (stereo partly drawn) [Example 277, (3R)-3-(2-(2-chloro-5-fluoro-3,4-dihydroxyphenyl)-2-(3-((3-(3-(3-hydroxyphenyl)ureido)propyl)sulfonyl)-2-oxoimidazolidine-1-carboxamido)acetamido)-7-fluoro-2-hydroxy-3,4-dihydro-2H-benzo[e][1,2]oxaborinine-8-carboxylic acid]",> 250,16 to 32,16 to 32,16 to 32,> 64,> 64,> 64,16 to 32
